Assay results: patent US20050191668A1, “Methods of using peroxisome proliferator-activated receptor alpha target genes” (priority 2004, published 2005)

Legend:
[1] = system: Pa21 gene; test: Pa21 gene expression by real-time RT-PCR in HuH7 hepatocytes; type: cell-based, human; conditions: about 20-24 h, vehicle control = 100
Description: (§1) Human hepatocyte HuH7 cells, which are epithelial cells of liver, were obtained from Japan Health Science Research Resources Bank (Osaka, Japan). Human primary adipocytes, which are connective tissue cells specialized for the synthesis and storage of fat, were obtained from Zen-Bio, Inc (Research Triangle Park, NC). Human primary skeletal muscle cells (SKMC) were obtained from Cambrex Bio Science (Walkersville, Md.). PPARα agonists, Wy14643 (Agatha, et al, 2000, Archives of Biochemistry and Biophysics 380:353-359) and fenofibrates were obtained from Cayman Chemical (Ann Arbor, Mich.) and Sigma (St Louis, Mo.), respectively.
(§2) Human HuH7 cells were cultured in Dulbecco's Modified Eagle Medium with 10% Fetal Bovine Serum (Gibco, N.Y.). Cells were treated with charcoal-stripped, delipidated calf serum (5%) (Sigma, St Louis, Mo.) for about 4-18 hours. Then, cells were treated with different concentrations of PPARα agonist (Wy14643 or fenofibrates) for about 20-24 h. Human SKM cells were cultured in Skeletal Muscle Growth Medium (Cambrex Bio Science, Walkersville, Md.), and were treated with different concentrations of PPARα agonist (Wy14643 or fenofibrates) for about 18-20 hours. Human primary adipocytes were cultured in Preadipocyte Medium, (Cat #PM—1, Zen-Bio, Inc., Research Triangle Park, NC), and were treated with different concentrations of PPARα agonist (Wy14643 or fenofibrates) for about 18-20 hours.
(§3) Total RNA was purified from cultured cells following the protocol provided by the manufacturer (Trizon method, Invitrogen Inc. Ca). The polymerase chain reaction (PCR) primers and fluorescent probes (TagMan probes) for Pa9, Pa13, and Pa21 were designed from GenBank sequences of accession numbers W30988, AB000584, and NM_080725, respectively. The primers and probes were designed using the software PrimerDesign (Applied Biosystems, Foster City, Calif.). The PCR primers for Pa9 were SEQ ID NO: 7, (5-[…]) and SEQ ID NO: 8 (5-[…]). […] The PCR primers for Pa13 were SEQ ID NO: 10 (5-[…], T) and SEQ ID NO: 11 (5-[…] T). […] The PCR primers for Pa21 were SEQ ID NO: 13 (5-[…] C) and SEQ ID NO: 14 (5-[…]). […] All primers and probes were synthesized by Keystone Labs (Camarillo, Calif.).
(§4) Reverse transcription (RT) and PCR were conducted in one step using “One-Step RT-PCR Master Mix Reagent” kit (Applied Biosystems, Foster City, Calif.) in ABI PRISM 7700 Sequence Detection System (Applied Biosystems). Each reaction was performed in a total volume of 25 μl containing 40 ng of total RNA. The reaction condition was: 48° C. for 30 minutes, 60° C. for 30 minutes, 94° C. for 5 minutes, followed by 40 cycles of 94° C. for 20 seconds and 60° C. for 1 minute. The primers for 18S ribosomal RNA were developed and provided by Applied Biosystems. The measurement of human 18S ribosomal RNA was used as an internal control for normalization of measuring and loading errors. PCR data were collected by Ct value (the cycle number at which logarithmic PCR plots cross a calculated threshold line) according to the manufacturer's guidelines and the value was used to determine the Δ^Ct (Ct of the target gene minus the Ct of 18S ribosomal RNA controls). Relative mRNA level was calculated using the equation 2^−ΔΔCt as described previously (Heid et al., 1996, Genome Res. 6:986-994).

[2] = system: Pa9 gene; test: Pa9 gene expression by real-time RT-PCR in primary skeletal muscle cells; type: cell-based, human; conditions: for Pa9 (W38098) gene expression, Percentage ± SE (%): about 18-20 hours, vehicle control = 100; for Pa9 gene expression, Fold of Induction: Veh = 1.00
Description: as §1, §2, §3, §4
The nucleotide sequence of the human FDRG gene (AX278133) is provided in SEQ ID NO: 1 and the sequence alignment between W30988 and FDRG gene is shown in FIG. 1. […] Quantitative real-time RT-PCR was performed to test whether gene expression of the human FDRG gene is regulated by PPARα.

[3] = system: Pa13 gene; test: Pa13 gene expression by real-time RT-PCR in primary adipocytes; type: cell-based, human; conditions: about 18-20 hours, vehicle control = 100
Description: as §1, §2, §3, §4

[4] = system: Pa21 gene; test: Pa21 gene expression by real-time RT-PCR in primary adipocytes; type: cell-based, human; conditions: about 18-20 hours, vehicle control = 100
Description: as §1, §2, §3, §4

[5] = system: human FDRG gene; test: FDRG gene expression by real-time RT-PCR in primary skeletal muscle cells; type: cell-based; conditions: Veh = 1.00, same RNA sample
Description: as §4
The nucleotide sequence of the human FDRG gene (AX278133) is provided in SEQ ID NO: 1 and the sequence alignment between W30988 and FDRG gene is shown in FIG. 1. […] Quantitative real-time RT-PCR was performed to test whether gene expression of the human FDRG gene is regulated by PPARα. […]

[6] = system: murine FIAF (fasting induced adipose factor); conditions: PPARα wild type mouse liver cells; cited from earlier work

## Cc1cccc(Nc2cc(Cl)nc(SCC(=O)O)n2)c1C [Wy14643]
[1]; 3 uM
  Pa21 (H4960) gene expression, Percentage ± SE (%): 145.5 ± 21.9%
[1]; 10 uM
  Pa21 (H4960) gene expression, Percentage ± SE (%): 163.6 ± 35%
[1]; 30 uM
  Pa21 (H4960) gene expression, Percentage ± SE (%): 372.7 ± 17.8%
[1]; 100 uM
  Pa21 (H4960) gene expression, Percentage ± SE (%): 227.3 ± 14.8%
[1]; 300 uM
  Pa21 (H4960) gene expression, Percentage ± SE (%): 481.8 ± 12.1%
[2]; 3 uM
  Pa9 (W38098) gene expression, Percentage ± SE (%): 110 ± 24.5%
[2]; 10 uM
  Pa9 (W38098) gene expression, Percentage ± SE (%): 230 ± 35.7%
[2]; 30 uM
  Pa9 gene expression, Fold of Induction: 3.64 fold
  Pa9 (W38098) gene expression, Percentage ± SE (%): 870 ± 30%
[2]; 100 uM
  Pa9 gene expression, Fold of Induction: 6.45 fold
  Pa9 (W38098) gene expression, Percentage ± SE (%): 860 ± 0.9%
[2]; 300 uM
  Pa9 (W38098) gene expression, Percentage ± SE (%): 610 ± 10.2%
[3]; 10 uM
  Pa13 (N26311) gene expression, Percentage ± SE (%): 56 ± 10%
[3]; 50 uM
  Pa13 (N26311) gene expression, Percentage ± SE (%): 55 ± 2%
[3]; 250 uM
  Pa13 (N26311) gene expression, Percentage ± SE (%): 214 ± 7.9%
[4]; 10 uM
  Pa21 (H4960) gene expression, Percentage ± SE (%): 92 ± 10%
[4]; 50 uM
  Pa21 (H4960) gene expression, Percentage ± SE (%): 108 ± 2%
[4]; 250 uM
  Pa21 (H4960) gene expression, Percentage ± SE (%): 314 ± 2.5%
[5]; 30 uM
  FDRG gene expression, Fold of Induction: 4.37 fold
[5]; 100 uM
  FDRG gene expression, Fold of Induction: 7.8 fold
[5]; 100 uM, listed as WY14643
  FDRG gene expression, Fold of Induction: 7.80 fold
[6]
  expression of murine FIAF: increased
